Source: PMC10385824, “Antiproliferative and Tubulin-Destabilising Effects of 3-(Prop-1-en-2-yl)azetidin-2-Ones and Related Compounds in MCF-7 and MDA-MB-231 Breast Cancer Cells” (Pharmaceuticals, 2023)
Like-named read-outs stand apart in the source and are kept apart here. Each block holds one compound with its values, some of them ahead of it.

Key:
[1] = tested on: MCF-7 human breast cancer cells; conditions: MCF-7; for IC50: read-out: Antiproliferative Activity IC50, 72 h, eight concentrations (0.001–50 mM [sic]), mean ± SEM, Table 5
[2] = tested on: MDA-MB-231 human breast cancer cells; test: Alamar Blue cell viability (antiproliferative) assay; format: cell-based; conditions: 72 h, eight concentrations 0.001-50 μM, mean ± SEM, read-out: Antiproliferative Activity IC50
[3] = tested on: MCF-7 human breast cancer cells; test: cells
[4] = tested on: purified bovine brain tubulin; test: Tubulin polymerization assay (light scattering, BK006 kit); format: biochemical; conditions: compound at 10 μM; for Fold Reduction in Vmax: relative to vehicle
Description: Tubulin polymerization was monitored using the BK006 kit obtained from Cytoskeleton Inc. (Denver, CO, USA). The values reported represent the average values determined from two independent assays. Purified bovine brain tubulin (>99%, 3 mg/mL) in buffer containing PIPES (80 mM, pH 6.9), EGTA (0.5 mM), MgCl2 (2 mM), GTP (1 mM) and glycerol (10%) was incubated at 37 °C in vehicle (1% DMSO or EtOH (v/v) in dH2O) or with compounds 9h, 9q, 9s, 10h, 10p, 10r, 11h, 11p, 11r, 17f (all at 10 µM concentration); CA-4 (10 μM) was used as control. In this assay, light scattering is related to the concentration of polymerised microtubules produced. Tubulin assembly was monitored turbidimetrically at 340 nm at 37 °C in a Spectramax 340 PC spectrophotometer (Molecular Devices, Sunnyvale, CA, USA).

[5] = tested on: MDA-MB-231/ATCC; test: NCI-60 SRB screen, breast cancer; format: cell-based, human; conditions: Homo sapiens, MDA-MB-231, 48 h, read-out: Antiproliferative Activity IC50
[6] = tested on: NCI 60 human cancer cell line panel; test: NCI 60 cell line screen (SRB), panel values; conditions: Homo sapiens, 60 cell
[7] = MCF7, read-out: Antiproliferative Activity IC50, MCF-7, eight concentrations 0.001–50 μM, mean ± SEM, Table 3
[8] = MCF7, 72 h, read-out: Antiproliferative Activity IC50, MCF-7, 72 h, eight concentrations 1–50 μM, mean ± SEM, Table 2
[9] = MCF7, 72 h, read-out: Antiproliferative Activity IC50, MCF-7, 72 h, eight concentrations (0.001–50 mM [sic]), mean ± SEM, Table 5
[10] = MCF7, read-out: Antiproliferative Activity IC50, MCF-7, eight concentrations 0.001–50 μM, mean ± SEM, Table 4
[11] = MCF7, read-out: Antiproliferative Activity IC50

Structure (SMILES): C=CC[C@@H]1C(=O)N(c2cc(OC)c(OC)c(OC)c2)[C@H]1c1ccc(C)cc1 (relative stereo) [10g, 3-Allyl-4-p-tolyl-1-olyl-1-(3,4,5-trimethoxyphenyl)azetidin-2-one]
IC50 [2]: 0.377 ± 0.06 µM
IC50 [3, 7]: 0.199 ± 0.03 µM

Structure (SMILES): C=CCC1C(=O)N(c2cc(OC)c(OC)c(OC)c2)C1c1ccc(OCc2ccccc2)cc1 (stereo not shown) [10l, 3-Allyl-4-(4-benzyloxyphenyl)-1-(3,4,5-trimethoxyphenyl)azetidin-2-one]
IC50 [2]: 0.486 ± 0.06 µM
melting point: 140 to 141 °C
IC50 [3, 7]: 7.39 ± 0.67 µM

Structure (SMILES): C=C(C)C1C(=O)N(c2cc(OC)c(OC)c(OC)c2)C1c1ccc(N(C)C)cc1 (stereo not shown) [9e, 4-(4-Dimethylaminophenyl)-1-(3,4,5-trimethoxyphenyl)-3-(prop-1-en-2-yl)azetidine-2-one]
antiproliferative activity in words [1]: sub-micromolar
IC50 [3, 8]: 5.95 ± 0.92 µM

Structure (SMILES): C=C(C)C1C(=O)N(c2cc(OC)c(OC)c(OC)c2)C1c1ccc(Br)cc1 (stereo not shown) [9c, 4-(4-Bromophenyl)-1-(3,4,5-trimethoxyphenyl)-3-(prop-1-en-2-yl)azetidine-2-one]
melting point: 130 to 131 °C
antiproliferative activity in words [1]: sub-micromolar

Structure (SMILES): C=C/C=C/C1C(=O)N(c2cc(OC)c(OC)c(OC)c2)C1c1cccc2ccccc12 (stereo not shown) [11m, (E)-3-(Buta-1,3-dien-1-yl)-4-(naphthalen-1-yl)-1-(3,4,5-trimethoxyphenyl)azetidin-2-one]
melting point: 113 to 114 °C
IC50 [3, 10]: 0.576 ± 0.1 µM

Structure (SMILES): C=C/C=C/C1C(=O)N(c2cc(OC)c(OC)c(OC)c2)C1c1ccccc1 (stereo not shown) [11f, (E)-3-(Buta-1,3-dien-1-yl)-4-phenyl-1-(3,4,5-trimethoxyphenyl)azetidin-2-one]
melting point: 90 to 93 °C
IC50 [3, 10]: 19.4 ± 4.03 µM

Structure (SMILES): C=C/C=C/C1C(=O)N(c2cc(OC)c(OC)c(OC)c2)C1c1ccc(OC)c(O)c1 (stereo not shown) [11p, (E)-3-(Buta-1,3-dien-1-yl)-4-(3-hydroxy-4-methoxyphenyl)-1-(3,4,5-trimethoxyphenyl)azetidin-2-one]
Fold Reduction in Vmax [4]: 1.1
IC50 [5]: 0.113 µM
IC50 [3, 11]: 0.061 ± 0.008 µM
GI50 ([6]; read-out: Mean GI50, mean over all NCI 60 cell lines): 0.288 µM
CC50 ([6]; read-out: Mean LC50): 91.2 µM
IC (TGI (total growth inhibition)) ([6]; read-out: Mean TGI): 31.6 µM

Structure (SMILES): CCCCOc1ccc(C2C(C3C=CCC4C(=O)N(c5ccccc5)C(=O)C43)C(=O)N2c2cc(OC)c(OC)c(OC)c2)cc1 (stereo not shown) [21c, 4-(2-(4-Butoxyphenyl)-4-oxo-1-(3,4,5-trimethoxyphenyl)azetidin-3-yl)-2-phenyl-3a,4,7,7a-tetrahydro-1H-isoindole-1,3(2H)-dione]
melting point: 163 to 164 °C
IC50 [3, 9]: 38.6 ± 4.9 µM

Structure (SMILES): C=C/C=C/C1C(=O)N(c2cc(OC)c(OC)c(OC)c2)C1c1ccc(F)cc1 (stereo not shown) [11d, (E)-3-(Buta-1,3-dien-1-yl)-4-(4-fluorophenyl)-1-(3,4,5-trimethoxyphenyl)azetidin-2-one]
melting point: 137 to 139 °C
IC50 [3, 10]: 3.21 ± 0.62 µM

Structure (SMILES): C=C(C)C1C(=O)N(c2ccc(OC)cc2)C1c1ccccc1 (stereo not shown) [9w, 1-(4-Methoxyphenyl)-4-phenyl-3-(prop-1-en-2-yl)azetidin-2-one]
melting point: 111 to 113 °C
IC50 [3, 8]: 0.033 ± 0.005 µM

Structure (SMILES): C=C(C)C1C(=O)N(c2ccc(OCC)cc2)C1c1cc(OC)c(OC)c(OC)c1 (stereo not shown) [9u, 1-(4-Ethoxyphenyl)-3-(prop-1-en-2-yl)-4-(3,4,5-trimethoxyphenyl)azetidin-2-one]
melting point: 106 to 108 °C
antiproliferative activity in words [1]: minimal

Structure (SMILES): C=C(C)C1C(=O)N(c2cc(OC)c(OC)c(OC)c2)C1c1ccc(OCC)cc1 (stereo not shown) [9i, 4-(4-Ethoxyphenyl)-1-(3,4,5-trimethoxyphenyl)-3-(prop-1-en-2-yl)azetidin-2-one]
IC50 [2]: 0.171 ± 0.011 µM
melting point: 100 to 102 °C
IC50 ([3]; MCF7, MCF-7): 0.081 µM

Structure (SMILES): C=C/C=C/C1C(=O)N(c2cc(OC)c(OC)c(OC)c2)C1c1ccc(OCC)cc1 (stereo not shown) [11i, (E)-3-(Buta-1,3-dien-1-yl)-4-(4-ethoxyphenyl)-1-(3,4,5-trimethoxyphenyl)-azetidin-2-one]
melting point: 73 to 75 °C
IC50 [3, 10]: 0.261 ± 0.05 µM

Structure (SMILES): C=CCC1C(=O)N(c2cc(OC)c(OC)c(OC)c2)C1c1cccc2ccccc12 (stereo not shown) [10m, 3-Allyl-4-naphthalen-1-yl-1-(3,4,5-trimethoxyphenyl)azetidin-2-one]
IC50 [2]: 0.656 ± 0.13 µM
melting point: 139 to 140 °C
IC50 [3, 7]: 0.21 ± 0.026 µM

Structure (SMILES): C=C/C=C/C1C(=O)N(c2cc(OC)c(OC)c(OC)c2)C1c1ccc(Cl)cc1 (stereo not shown) [11b, (E)-3-(Buta-1,3-dien-1-yl)-4-(4-chlorophenyl)-1-(3,4,5-trimethoxyphenyl)azetidin-2-one]
melting point: 145 to 147 °C
IC50 [3, 10]: 0.315 ± 0.04 µM

Structure (SMILES): C=CC=CC1C(=O)N(c2cc(OC)c(OC)c(OC)c2)C1c1ccc(C)cc1 (stereo not shown) [11g, 3-(Buta-1,3-dienyl)-4-p-tolyl-1-(3,4,5-trimethoxyphenyl)azetidin-2-one]
IC50 [2]: 0.16 ± 0.014 µM
melting point: 88 to 89 °C
IC50 [3, 10]: 0.2 ± 0.04 µM

Structure (SMILES): C=CCC1C(=O)N(c2cc(OC)c(OC)c(OC)c2)C1c1ccc(F)cc1 (stereo not shown) [10d, 3-Allyl-4-(4-fluorophenyl)-1-(3,4,5-trimethoxyphenyl) azetidin-2-one]
melting point: 89 to 90 °C
IC50 [3, 11]: 33.8 ± 9.04 µM

Structure (SMILES): C=C/C=C/C1C(=O)N(c2cc(OC)c(OC)c(OC)c2)C1c1ccc(Br)cc1 (stereo not shown) [11c, (E)-4-(4-Bromophenyl)-3-(buta-1,3-dien-1-yl)-1-(3,4,5-trimethoxyphenyl)azetidin-2-one]
melting point: 153 to 155 °C
IC50 [3, 10]: 0.428 ± 0.042 µM

Structure (SMILES): C=C/C=C/C1C(=O)N(c2cc(OC)c(OC)c(OC)c2)C1c1ccc(Oc2ccccc2)cc1 (stereo not shown) [11k, (E)-3-(Buta-1,3-dien-1-yl)-4-(4-phenoxyphenyl)-1-(3,4,5-trimethoxyphenyl)azetidin-2-one]
melting point: 119 to 120 °C
IC50 [3, 10]: 37.9 ± 3.8 µM

Structure (SMILES): C=C/C=C/C1C(=O)N(c2cc(OC)c(OC)c(OC)c2)C1c1ccc([N+](=O)[O-])cc1 (stereo not shown) [11a, (E)-3-(Buta-1,3-dien-1-yl)-4-(4-nitrophenyl)-1-(3,4,5-trimethoxyphenyl)azetidin-2-one]
melting point: 133 to 134 °C
IC50 [3, 10]: 0.784 ± 0.13 µM

Further lines, with some results ahead:

IC50 [1]: 9.69 ± 1.02 µM
Structure (SMILES): COC(=O)C1=C(C(=O)OC)C(C2C(=O)N(c3cc(OC)c(OC)c(OC)c3)C2c2cccc3ccccc23)CC=C1 (stereo not shown) [22b, Dimethyl-6-(1-(3,4,5-trimethoxyphenyl)-2-(naphthalen-1-yl)-4-oxoazetidin-3-yl)cyclohexa-1,3-diene-1,2-dicarboxylate]

melting point: 224 to 225 °C
IC50 [3, 9]: 91.1 ± 14.5 µM
Structure (SMILES): COc1ccc(C2C(C3C=CCC4C(=O)OC(=O)C43)C(=O)N2c2cc(OC)c(OC)c(OC)c2)cc1O (stereo not shown) [21d, 3a,4,7,7a-Tetrahydro-4-(2-(3-hydroxy-4-methoxyphenyl)-1-(3,4,5-trimethoxyphenyl)-4-oxoazetidin-3-yl)isobenzofuran-1,3-dione]

melting point: 242 to 244 °C
IC50 [3, 9]: 96.2 ± 13.5 µM
Structure (SMILES): COc1cc(N2C(=O)C(C3C=CCC4C(=O)OC(=O)C43)C2c2ccc(Br)cc2)cc(OC)c1OC (stereo not shown) [21b, 4-(2-(4-Bromophenyl)-1-(3,4,5-trimethoxyphenyl)-4-oxoazetidin-3-yl)-3a,4,7,7a-tetrahydroisobenzofuran-1,3-dione]

melting point: 103 to 104 °C
IC50 [3, 9]: 0.332 ± 0.04 µM
Structure (SMILES): COc1ccc(C2C(CC=Cc3ccccc3)C(=O)N2c2cc(OC)c(OC)c(OC)c2)cc1 (stereo not shown) [17a, 3-Cinnamyl-4-(4-methoxyphenyl)-1-(3,4,5-trimethoxyphenyl)azetidin-2-one]

IC50 [3, 9]: 0.035 ± 0.003 µM
Structure (SMILES): CCOC(=O)CC1C(=O)N(c2cc(OC)c(OC)c(OC)c2)C1c1ccc(OC)cc1 (stereo not shown) [17f, Ethyl-2-(1-(3,4,5-trimethoxyphenyl)-2-(4-methoxyphenyl)-4-oxoazetidin-3-yl)acetate]
Vmax ([4]; 37 °C, 340 nm): 0.0038 mOD/min
Fold Reduction in Vmax [4]: 2.2

IC50 [1]: 142 ± 20.3 µM
Structure (SMILES): COC(=O)C1=C(C(=O)OC)C(C2C(=O)N(c3cc(OC)c(OC)c(OC)c3)C2c2cccc3ccccc23)CC=C1 (stereo not shown) [22a, Dimethyl-6-(1-(3,4,5-trimethoxyphenyl)-2-(naphthalen-1-yl)-4-oxoazetidin-3-yl)cyclohexa-1,3-diene-1,2-dicarboxylate]

melting point: 208 to 210 °C
IC50 [3, 9]: 106 ± 13.9 µM
Structure (SMILES): COc1cc(N2C(=O)C(C3C=CCC4C(=O)N(c5ccccc5)C(=O)C43)C2c2ccc(Cl)cc2)cc(OC)c1OC (stereo not shown) [21a, 4-(2-(4-Chlorophenyl)-1-(3,4,5-trimethoxyphenyl)-4-oxoazetidin-3-yl)-3a,4,7,7a-tetrahydro-2-phenyl-2H-isoindole-1,3-dione]
